Data: patent US20250099534A1, “UBIQUITIN HIGH AFFINITY CYCLIC PEPTIDES AND METHODS OF USE THEREOF” (TECHNION RESEARCH & DEVELOPMENT FOUNDATION LIMITED, priority 2022, published 2025)
Read-outs that look alike come from different tables or passages of the source. Each block holds one compound with its values, some of them ahead of it. Starred links: 1 amine or outer side, 2 acyl side, 3 side chain; linkers in the order of their positions; H or OH if unused. Positions of bridges follow the written chain, without caps; N, C: chain ends. Residues, ends and D or L forms follow the SMILES beside them. *: point of attachment. Fluorescein(5-Mal) = O=C1OC2(c3ccc(O)cc3Oc3cc(O)ccc32)c2ccc(N3C(=O)CC(*)C3=O)cc21; X2 = CN(C)c1ccc2c(c1)Oc1cc(N(C)C)ccc1C21OC(=O)c2cc(N3C(=O)CC(*)C3=O)ccc21; X1 = O=C(c1cccc(C[*:2])c1)[*:1]

Legend:
[1] = Solubility in buffer (aq.) medium; assay type: physicochemical
[2] = tested on: U2OS cells
Protocol: (§1) Cells were seeded for 24 h on ibidi 8 well μ-slides treated with poly-L-lysine to reach ˜90% confluency. Cells were then washed three times with warm PBS followed by incubation for 1 h with warm serum-free medium (DMEM) containing peptides. Thereafter, cells were washed two times with warm PBS. Prior to imaging, cells were washed with an optical culture medium and stained with Hoechst (2 μg/ml). Live cell CLSM images were captured using Confocal Zeiss LSM 710 equipped with 40×NA 1.2 water immersion objective lens using a 1 AU pinhole settings. Different lasers were used for the different tags (Hoechst, TAMRA, FITC), and during analysis, the μ-slide was kept at 37° C. in a humidified chamber.

[3] = tested on: U2OS cells; test: Cell uptake studies by live-cell confocal microscopy; conditions: 2 μM
Protocol: as §1

aqueous solubility [1]: poor aqueous solubility
SMILES: CC[C@H](C)[C@@H]1NC(=O)[C@H](Cc2c[nH]c3ccccc23)NC(=O)[C@H]([C@@H](C)CC)NC(=O)[C@H](CC(C)C)NC(=O)[C@H](CS)NC(=O)c2cccc(c2)CSC[C@@H](C(=O)NCC(N)=O)NC(=O)[C@H](CC(C)C)NC(=O)[C@H]([C@@H](C)CC)NC(=O)[C@H](Cc2ccc(O)cc2)NC(=O)[C@@H]2CCCN2C(=O)[C@H](CC(N)=O)NC(=O)[C@H](CCCCN)NC(=O)[C@H](CO)NC(=O)[C@H](CO)NC(=O)CNC1=O [cyclic peptide 2] (CLIWIGSSKNPYILCG-NH2; linker N-15 via X1)

cell-permeability / delivery to live cells [2]: did not observe an efficient delivery
SMILES: CC[C@H](C)[C@@H]1NC(=O)[C@H](Cc2c[nH]c3ccccc23)NC(=O)[C@H]([C@@H](C)CC)NC(=O)[C@H](CC(C)C)NC(=O)[C@H](CS)NC(=O)c2cccc(c2)CSC[C@@H](C(=O)NCC(=O)N[C@@H](C)C(=O)N[C@@H](CSC2CC(=O)N(c3ccc4c(c3)C(=O)OC43c4ccc(O)cc4Oc4cc(O)ccc43)C2=O)C(N)=O)NC(=O)[C@H](CC(C)C)NC(=O)[C@H]([C@@H](C)CC)NC(=O)[C@H](Cc2ccc(O)cc2)NC(=O)[C@@H]2CCCN2C(=O)[C@H](CC(N)=O)NC(=O)[C@H](CCCCN)NC(=O)[C@H](CO)NC(=O)[C@H](CO)NC(=O)CNC1=O (stereo partly drawn) [cyclic peptide 29] (CLIWIGSSKNPYILCGAC(Fluorescein(5-Mal))-NH2; linker N-15 via X1)

SMILES: CC[C@H](C)[C@@H]1NC(=O)[C@H](Cc2c[nH]c3ccccc23)NC(=O)[C@H]([C@@H](C)CC)NC(=O)[C@H](CC(C)C)NC(=O)[C@H](CS)NC(=O)c2cccc(c2)CSC[C@@H](C(=O)NCC(=O)N[C@@H](C)C(=O)N[C@@H](CSC2CC(=O)N(c3ccc4c(c3)C(=O)OC43c4ccc(N(C)C)cc4Oc4cc(N(C)C)ccc43)C2=O)C(N)=O)NC(=O)[C@H](CC(C)C)NC(=O)[C@H]([C@@H](C)CC)NC(=O)[C@H](Cc2ccc(O)cc2)NC(=O)[C@@H]2CCCN2C(=O)[C@H](CC(N)=O)NC(=O)[C@H](CCCCN)NC(=O)[C@H](CO)NC(=O)[C@H](CO)NC(=O)CNC1=O (stereo partly drawn) [cyclic peptide 26] (CLIWIGSSKNPYILCGAC(X2)-NH2; linker N-15 via X1)
cell-permeability / delivery to live cells [3]: efficient cell-permeability
